# From patent US9765056B2, “Indole and pyrrole compounds, a process for their preparation and pharmaceutical compositions containing them” (LES LABORATOIRES SERVIER, priority 2013, dated 2017)
# Where a name gives a salt, the structure may show the parent alone.
# Key:
# Bcl-2 protein = Bcl-2 protein (histag-Bcl-2, UniProtKB P10415) (Homo sapiens (Human), UniProt P10415); test: Inhibition of Bcl-2 by the fluorescence polarisation technique; format: binding; details: fluorescence polarisation test; method A, or method B where underlined (underlining not visible); read-out: IC50 (nM) Bcl-2 FP
# Sequence of Bcl-2 protein (P10415 whole entry): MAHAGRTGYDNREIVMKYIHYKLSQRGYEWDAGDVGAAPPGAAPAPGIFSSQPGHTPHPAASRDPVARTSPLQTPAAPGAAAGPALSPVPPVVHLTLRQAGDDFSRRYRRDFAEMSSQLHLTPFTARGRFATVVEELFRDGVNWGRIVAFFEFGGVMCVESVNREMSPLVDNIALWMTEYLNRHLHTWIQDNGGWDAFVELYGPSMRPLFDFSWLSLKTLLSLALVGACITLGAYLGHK
# Excerpt: Inhibition of Bcl-2 by the fluorescence polarisation technique
# [1] = tested on: RS4;11 leukaemia tumour line; test: In vitro cytotoxicity, Microculture Tetrazolium Assay (MTT); format: cell-based; details: Homo sapiens; RS4;11 cells, 48 hours exposure
# Description: The cytotoxicity studies were carried out on the RS4;11 leukaemia tumour line.
# The cells are distributed onto microplates and exposed to the test compounds for 48 hours. The cell viability is then quantified by a colorimetric assay, the Microculture Tetrazolium Assay (Cancer Res., 1987, 47, 939-942).
IC50 (Bcl-2 protein),Compound,IC50 [1]
7.7 nM,"Cc1cc(C(=O)N(c2ccc(O)cc2)c2ccc(O)cc2)cn1-c1cc(Br)ccc1C(=O)N1Cc2ccccc2C[C@H]1CN1CCN(C)CC1 [Example 61, 1-(5-Bromo-2-{[(3S)-3-[(4-methylpiperazin-1-yl)methyl]-3,4-dihydroisoquinolin-2(1H)-yl]carbonyl}phenyl)-N,N-bis(4-hydroxyphenyl)-5-methyl-1H-pyrrole-3-carboxamide]",204 nM
6.7 nM,"CN1CCN(C[C@@H]2Cc3ccccc3CN2C(=O)c2cc3c(cc2-n2cc(C(=O)N(c4ccc(O)cc4)c4ccc5c(ccn5C)c4)c4ccccc42)OCO3)CC1 [Example 45, N-(4-Hydroxyphenyl)-N-(1-methyl-1H-indol-5-yl)-1-(6-{[(3S)-3-[(4-methylpiperazin-1-yl)methyl]-3,4-dihydroisoquinolin-2(1H)-yl]carbonyl}-1,3-benzodioxol-5-yl)-1H-indole-3-carboxamide]",36.5 nM
25.1 nM,"COc1ccc(C(=O)N2Cc3ccccc3C[C@H]2CN(C)C)c(-n2cc(C(=O)N(c3ccccc3)c3ccc(O)cc3)c3ccccc32)c1 [Example 175, 1-{2-[(3S)-3-[(Dimethylamino)methyl]-1,2,3,4-tetrahydroisoquinoline-2-carbonyl]-5-methoxyphenyl}-N-(4-hydroxyphenyl)-N-phenyl-1H-indole-3-carboxamide]",460 nM
4.2 nM,"Cc1cc(C(=O)N(c2ccc(O)cc2)c2ccc3c(ccn3C)c2)cn1-c1cc(Cl)ccc1C(=O)N1Cc2ccccc2C[C@H]1CN1CCN(C)CC1 [Example 89, 1-(5-Chloro-2-{[(3S)-3-[(4-methylpiperazin-1-yl)methyl]-3,4-dihydroisoquinolin-2(1H)-yl]carbonyl}phenyl)-N-(4-hydroxyphenyl)-5-methyl-N-(1-methyl-1H-indol-5-yl)-1H-pyrrole-3-carboxamide]",59.8 nM
15.6 nM,"Cc1cc(C(=O)N(c2ccccc2)c2ccc(O)cc2)cn1-c1cc2c(cc1C(=O)N1Cc3ccccc3C[C@H]1CN1CCN(C)CC1)OCO2 [Example 24, N-(4-Hydroxyphenyl)-5-methyl-1-(6-{[(3S)-3-[(4-methylpiperazin-1-yl)methyl]-3,4-dihydroisoquinolin-2(1H)-yl]carbonyl}-1,3-benzodioxol-5-yl)-N-phenyl-1H-pyrrole-3-carboxamide]",140 nM
18.9 nM,"NC[C@@H]1Cc2ccccc2CN1C(=O)c1ccccc1-n1cc(C(=O)N(c2ccccc2)c2ccc(O)cc2)c2ccccc21 [Example 131, 1-{2-[(3S)-3-(Aminomethyl)-1,2,3,4-tetrahydroisoquinoline-2-carbonyl}phenyl]-N-(4-hydroxyphenyl)-N-phenyl-1H-indole-3-carboxamide]",469 nM
54.1 nM,"CC(C)CC1Oc2cc(C(=O)N3Cc4ccccc4C[C@H]3CN)c(-n3cc(C(=O)N(c4ccccc4)c4ccc(O)cc4)c4ccccc43)cc2O1 (stereo partly drawn) [Example 158, 1-{6-[(3S)-3-(Aminomethyl)-1,2,3,4-tetrahydroisoquinoline-2-carbonyl]-2-(2-methylpropyl)-2H-1,3-benzodioxol-5-yl}-N-(4-hydroxyphenyl)-N-phenyl-1H-indole-3-carboxamide]",834 nM
9 nM,"Cc1ccc(N(C(=O)c2cc(C)n(-c3cc(Br)ccc3C(=O)N3Cc4ccccc4C[C@H]3CN3CCN(C)CC3)c2)c2ccc(O)cc2)cc1 [Example 53, 1-(5-Bromo-2-{[(3S)-3-[(4-methylpiperazin-1-yl)methyl]-3,4-dihydroisoquinolin-2(1H)-yl]carbonyl}phenyl)-N-(4-hydroxyphenyl)-5-methyl-N-(4-methylphenyl)-1H-pyrrole-3-carboxamide]",207 nM
213 nM,"Cc1cc(C(=O)N(c2ccccc2)c2ccccc2)cn1-c1ccccc1C(=O)N1Cc2ccccc2C[C@H]1CN [Example 5, 1-(2-{[(3S)-3-(Aminomethyl)-3,4-dihydroisoquinolin-2(1H)-yl]-carbonyl}phenyl)-5-methyl-N,N-diphenyl-1H-pyrrole-3-carboxamide trifluoroacetate]",2590 nM
3.7 nM,"CN1CCN(C[C@@H]2Cc3ccccc3CN2C(=O)c2cc3c(cc2-n2cc(C(=O)N(c4ccc(O)cc4)c4ccc(O)cc4)c4ccccc42)OCO3)CC1 [Example 41, N,N-bis(4-Hydroxyphenyl)-1-(6-{[(3S)-3-[(4-methylpiperazin-1-yl)-methyl]-3,4-dihydroisoquinolin-2(1H)-yl]carbonyl}-1,3-benzodioxol-5-yl)-1H-indole-3-carboxamide]",52.2 nM
5.9 nM,"Cc1cc(C(=O)N(c2ccc(O)cc2)c2ccc(O)cc2)cn1-c1cc(Cl)ccc1C(=O)N1Cc2ccccc2C[C@H]1CN1CCN(C)CC1 [Example 67, 1-(5-Chloro-2-{[(3S)-3-[(4-methylpiperazin-1-yl)methyl]-3,4-dihydroisoquinolin-2(1H)-yl]carbonyl}phenyl)-N,N-bis(4-hydroxyphenyl)-5-methyl-1H-pyrrole-3-carboxamide]",101 nM
12.1 nM,"Cc1cc(C(=O)N(c2ccc(O)cc2)c2ccc3c(ccn3CCN3CCOCC3)c2)cn1-c1cc2c(cc1C(=O)N1Cc3ccccc3C[C@H]1C)OCO2 [Example 116, N-(4-Hydroxyphenyl)-5-methyl-1-(6-{[(3R)-3-methyl-3,4-dihydroisoquinolin-2(1H)-yl]carbonyl}-1,3-benzodioxol-5-yl)-N-{1-[2-(morpholin-4-yl)ethyl]-1H-indol-5-yl}-1H-pyrrole-3-carboxamide hydrochloride]",131 nM
4.9 nM,"Cc1cc(C(=O)N(c2ccc(O)cc2)c2ccc3c(ccn3C)c2)cn1-c1cc(Cl)c(F)cc1C(=O)N1Cc2ccccc2C[C@H]1CN1CCN(C)CC1 [Example 77, 1-(5-Chloro-4-fluoro-2-{[(3S)-3-[(4-methylpiperazin-1-yl)methyl]-3,4-dihydroisoquinolin-2(1H)-yl]carbonyl}phenyl)-N-(4-hydroxyphenyl)-5-methyl-N-(1-methyl-1H-indol-5-yl)-1H-pyrrole-3-carboxamide hydrochloride]",207 nM
19.6 nM,"CN1CCN(C[C@@H]2Cc3ccccc3CN2C(=O)c2cc3c(cc2-n2cc(C(=O)N(c4ccc(O)cc4)c4ccc5[nH]ccc5c4)c4cc(Cl)ccc42)OCO3)CC1 [Example 88, 5-Chloro-N-(4-hydroxyphenyl)-N-(1H-indol-5-yl)-1-(6-{[(3S)-3-[(4-methylpiperazin-1-yl)methyl]-3,4-dihydroisoquinolin-2(1H)-yl]carbonyl}-1,3-benzodioxol-5-yl)-1H-indole-3-carboxamide]",541 nM
51 nM,"COc1ccc(C(=O)N2Cc3ccccc3C[C@H]2CN)c(-n2nc(C(=O)N(c3ccccc3)c3ccccc3)c3ccccc32)c1 [Example 150, 1-{2-[(3S)-3-(Aminomethyl)-1,2,3,4-tetrahydroisoquinoline-2-carbonyl]-5-methoxyphenyl}-N,N-diphenyl-1H-indazole-3-carboxamide]",1320 nM
87.6 nM,"Cc1cc(C(=O)N(c2ccccc2)c2ccc(O)cc2)cn1-c1ccc(Cl)cc1C(=O)N1Cc2ccccc2C[C@H]1CN1CCN(C)CC1 [Example 25, 1-(4-Chloro-2-{[(3S)-3-[(4-methylpiperazin-1-yl)methyl]-3,4-dihydroisoquinolin-2(1H)-yl]carbonyl}phenyl)-N-(4-hydroxyphenyl)-5-methyl-N-phenyl-1H-pyrrole-3-carboxamide]",1100 nM
8 nM,"Cc1cc(C(=O)N(c2ccccc2)c2ccc(O)cc2)cn1-c1cc(Cl)c(F)cc1C(=O)N1Cc2ccccc2C[C@H]1CN1CCN(C)CC1 [Example 28, 1-(5-Chloro-4-fluoro-2-{[(3S)-3-[(4-methylpiperazin-1-yl)methyl]-3,4-dihydroisoquinolin-2(1H)-yl]carbonyl}phenyl)-N-(4-hydroxyphenyl)-5-methyl-N-phenyl-1H-pyrrole-3-carboxamide]",378 nM
6.6 nM,"Cc1cc(C(=O)N(c2ccc(O)cc2)c2ccc(F)cc2)cn1-c1cc(Cl)ccc1C(=O)N1Cc2ccccc2C[C@H]1CN1CCN(C)CC1 [Example 66, 1-(5-Chloro-2-{[(3S)-3-[(4-methylpiperazin-1-yl)methyl]-3,4-dihydroisoquinolin-2(1H)-yl]carbonyl}phenyl)-N-(4-fluorophenyl)-N-(4-hydroxyphenyl)-5-methyl-1H-pyrrole-3-carboxamide]",148 nM
44.6 nM,"Cc1cc(C(=O)N(c2ccccc2)c2ccc(O)cc2)cn1-c1ccc(Br)cc1C(=O)N1Cc2ccccc2C[C@H]1CN1CCN(C)CC1 [Example 29, 1-(4-Bromo-2-{[(3S)-3-[(4-methylpiperazin-1-yl)methyl]-3,4-dihydroisoquinolin-2(1H)-yl]carbonyl}phenyl)-N-(4-hydroxyphenyl)-5-methyl-N-phenyl-1H-pyrrole-3-carboxamide]",1010 nM
13.2 nM,"CN1CCN(C[C@@H]2Cc3ccccc3CN2C(=O)c2ccccc2-n2cc(C(=O)N(c3ccccc3)c3ccc(O)cc3)c3ccccc32)CC1 [Example 155, N-(4-Hydroxyphenyl)-1-{2-[(3S)-3-[(4-methylpiperazin-1-yl)methyl]-1,2,3,4-tetrahydroisoquinoline-2-carbonyl}phenyl]-N-phenyl-1H-indole-3-carboxamide]",246 nM
6.1 nM,"CN1CCN(C[C@@H]2Cc3ccccc3CN2C(=O)c2cc3c(cc2-n2cc(C(=O)N(c4ccc(O)c(F)c4)c4ccc5c(ccn5C)c4)c4ccccc42)OCO3)CC1 [Example 97, N-(3-Fluoro-4-hydroxyphenyl)-N-(1-methyl-1H-indol-5-yl)-1-(6-{[(3S)-3-[(4-methylpiperazin-1-yl)methyl]-3,4-dihydroisoquinolin-2(1H)-yl]carbonyl}-1,3-benzodioxol-5-yl)-1H-indole-3-carboxamide hydrochloride]",73.2 nM
